Measured values as given in patent publication US10857113B2, “Bezafibrate for the treatment of cancer” (Cipla Limited, priority 2016, dated 2020).
Where two headings read alike, the source gives them in different places.

Key:
[1] = system: human tumor cell models for RCC; experiment: In vitro 2D assay, all cell lines tested; format: cell-based; settings: 2D model; for IC50: Homo sapiens
Source text: Cell lines RXF 1183L, RXF 1220L, RXF 1781L, RXF 393L and RXF 486L were established at Oncotest from the corresponding human patient-derived xenograft. The cell lines 786-O, A-498, Caki-1 and SN12C were purchased from NCI (National Cancer Institute, Bethesda, Md., USA). ACHN was purchased from ECACC (European Collection of Cell Cultures, Salisbury, UK). Authenticity of cell lines was confirmed at the DSMZ by STR (short tandem repeat) analysis, a PCR based DNA-fingerprinting methodology.
Cell lines were routinely passaged once or twice weekly and maintained in culture for up to 20 passages. All cells were grown at 37° C. in a humidified atmosphere with 5% CO2 in RPMI 1640 medium (25 mM HEPES, with L-glutamine, # FG1385, Biochrom, Berlin, Germany) supplemented with 10% (v/v) fetal calf serum (Sigma, Taufkirchen, Germany) and 0.1 mg/mL gentamicin (Life Technologies, Karlsruhe, Germany).
Bezafibrate was dissolved at a concentration of 100 mM in 100% Methanol and next 1:5 diluted with cell culture media (20 mM, 20% Methanol). Starting with this solution, serial dilutions (1:1.6) were prepared with cell culture medium. Next, 150 μL of the serial dilutions were transferred to the assay plates upon removing the cell culture media of each well (complete change of medium on assay plates). […] The maximum methanol concentrations were 6% and 10%. No precipitation was observed.
Cells were harvested from exponential phase cultures, counted and plated in 96-well flat-bottom microtiter plates at a cell density of 4,000-12,000 cells/well depending on the cell line's growth rate. After a 24 hour recovery period to allow the cells to resume exponential growth, test compounds were added. Compounds were applied at 8 to 10 concentrations in duplicate and treatment continued for 96 hour. After 96 hour treatment of cells, 20 μL/well CellTiter-Blue® reagent was added. Following an incubation period of up to four hours, fluorescence (FU) was measured by using the Enspire Multimode Plate Reader (excitation λ=531 nm, emission λ=615 nm).
For calculations, the mean values of duplicate/quadruplicate (untreated control) data were used. Sigmoidal concentration-response curves were fitted to the data points (T/C values) obtained for each cell line using 4 parameter non-linear curve fit.

[2] = system: A498 cells; experiment: In vivo animal efficacy study, subcutaneous tumor fragment xenograft; set-up: species or system female athymic nude mice; settings: sunitinib 20 mg/kg, bezafibrate 150 mg/kg, p.o. q.d. × 21
Protocol: Healthy 10 female athymic nude mice were recruited for the donor cell inoculation. Animals were subcutaneously injected at flank region with 10 million A498 cells suspended in 200 μl of media and matrigel. Animals were monitored for solid tumor growth. […] Tumors were fragmented in to ˜30 mg size. […] [table] The tumor sizes were measured weekly twice from the date of tumor appearance till the end of the experiment. Tumor size was measured by digital vernier caliper (MITUTOYO) by measuring length (L=longest axis) and width (W=shortest axis). Tumor Volume (V) was calculated using formula: […] Mean tumor volume and % tumor growth inhibition (% TGI) were then calculated (SEM=standard error of mean).

[3] = background statement; cited from earlier work
[4] = background statement; cited from earlier work; remark: listed apart in the source
[5] = system: human tumor cell models for RCC; experiment: In vitro 3D clonogenic assay, all tumor models; format: cell-based; settings: 3D model, geometric mean over 10 tumor models
Protocol: (§1) Cell lines were routinely passaged one or twice weekly. All cells were grown at 37° C. in a humidified atmosphere with 5% CO2 in RPMI 1640 medium (Biochrom) supplemented with 10% (v/v) fetal calf serum and 0.1 mg/mL gentamicin. The percentage of viable cells was determined in a Neubauer-hemocytometer using trypan blue exclusion.
Tumor xenografts (patient-derived, as well as cell line-derived xenografts) were passaged as subcutaneous xenografts in NMRI nu/nu mice. At a tumor volume of 400-1,000 mm^3 tumor-bearing mice were sacrificed and tumors were collected under sterile conditions without delay according to the relevant Oncotest SOPs and the relevant animal welfare guidelines published by the FELASA and the GV-SOLAS. Tumors were mechanically disaggregated and subsequently incubated with an enzyme cocktail consisting of collagenase type IV (41 U/mL), DNase I (125 U/mL), hyaluronidase type III (100 U/mL), and dispase II (1.0 U/mL) in RPMI 1640 medium (Life Technologies) at 37° C. for 60-120 minutes. […] The percentage of viable cells was determined in a Neubauer-hemocytometer using trypan blue exclusion. […]
The clonogenic assay was carried out in a 96 well plate format using ultra low attachment plates. […] Cultures were incubated at 37° C. and 7.5% CO2 in a humidified atmosphere for 8 to 13 days and monitored closely for colony growth using an inverted microscope. […]

[6] = system: A-498; experiment: In vitro 3D clonogenic assay; format: cell-based; settings: Homo sapiens, A498, 3D model, colony formation, 8 to 13 days continuous exposure
Protocol: as §1
(§2) Tumor xenografts (patient-derived, as well as cell line-derived xenografts) were passaged as subcutaneous xenografts in NMRI nu/nu mice. At a tumor volume of 400-1,000 mm^3 tumor-bearing mice were sacrificed and tumors were collected under sterile conditions without delay according to the relevant Oncotest SOPs and the relevant animal welfare guidelines published by the FELASA and the GV-SOLAS. Tumors were mechanically disaggregated and subsequently incubated with an enzyme cocktail consisting of collagenase type IV (41 U/mL), DNase I (125 U/mL), hyaluronidase type III (100 U/mL), and dispase II (1.0 U/mL) in RPMI 1640 medium (Life Technologies) at 37° C. for 60-120 minutes. Cells were passed through sieves of 100 μm and 40 μm mesh size (Cell Strainer, BD Falcon™), and washed with RPMI 1640 medium. The percentage of viable cells was determined in a Neubauer-hemocytometer using trypan blue exclusion. Aliquots of the cells were frozen down, and stored in liquid nitrogen. On each day of an experiment, a frozen aliquot of tumor cells was thawed and used for preparation of assay plates.
(§3) The clonogenic assay was carried out in a 96 well plate format using ultra low attachment plates. For each test, cells were prepared as described above and assay plates were prepared as follows: each test well contained a layer of semi-solid medium with tumor cells (50 and a second layer of medium supernatant with or without test compound (100 The cell layer consisted of 2.5·10^3 to 1·10^4 tumor cells per well, which were seeded in 50 μL/well cell culture medium (IMDM, supplemented with 20% (v/v) fetal calf serum, 0.01% (w/v) gentamicin, and 0.4% (w/v) agar). After 24 hours the test compounds were added after serial dilution in cell culture medium, and left on the cells for the duration of the experiment (continuous exposure, 100 μl drug overlay). Every plate included six untreated control wells and drug-treated groups in duplicate at 9 concentrations. Cultures were incubated at 37° C. and 7.5% CO2 in a humidified atmosphere for 8 to 13 days and monitored closely for colony growth using an inverted microscope. Within this period, ex vivo tumor growth led to the formation of colonies with a diameter of >50 μm. At the time of maximum colony formation, counts were performed with an automatic image analysis system (CellInsight NXT, Thermo Scientific). 48 hours prior to evaluation, vital colonies were stained with a sterile aqueous solution of 2-(4-iodophenyl)-3-(4-nitrophenyl)-5-phenyltetrazolium chloride (1 mg/ml, 100 μl/well).

[7] = system: RXF 393L; experiment: In vitro 3D clonogenic assay; format: cell-based; settings: Homo sapiens, 3D model, colony formation, 8 to 13 days continuous exposure
Protocol: as §1, §2, §3

[8] = system: RXF 486L; experiment: In vitro 3D clonogenic assay; format: cell-based; settings: Homo sapiens, 3D model, colony formation, 8 to 13 days continuous exposure
Protocol: as §1, §2, §3

[9] = system: RXF 1183L; experiment: In vitro 3D clonogenic assay; format: cell-based; settings: Homo sapiens, 3D model, colony formation, 8 to 13 days continuous exposure
Protocol: as §1, §2, §3

[10] = system: ACHN; experiment: In vitro 3D clonogenic assay; format: cell-based; settings: Homo sapiens, 3D model, colony formation, 8 to 13 days continuous exposure
Protocol: as §1, §2, §3

IC50 values, overall anti-cancer activity ([1]; overall statement): low mM range | IC50 ([1]; geometric mean over 10 cell lines, second run 381 to 10,240 μM, read-out: Geometric mean absolute IC50): 1220 µM | IC50 ([1]; geometric mean over 10 cell lines, read-out: Geometric mean relative IC50): 1560 µM | IC50 ([1]; first run 93 to 4,000 μM, read-out: Geometric mean absolute IC50): 1780 µM | IC50 ([5]; read-out: Geometric mean absolute IC50): 945 µM | IC50 ([5]; read-out: Geometric mean relative IC50): 985 µM | IC50 ([6]; read-out: Absolute IC50): 764 µM | IC50 ([6]; read-out: Relative IC50): 773 µM | IC50 ([7]; read-out: Absolute IC50): 1270 µM | IC50 ([7]; read-out: Relative IC50): 1280 µM | IC50 ([8]; read-out: Absolute IC50): 993 µM | IC50 ([8]; read-out: Relative IC50): 962 µM | IC50 ([9]; read-out: Absolute IC50): 609 µM | IC50 ([9]; read-out: Relative IC50): 712 µM | IC50 ([10]; read-out: Absolute IC50): 1010 µM | IC50 ([10]; read-out: Relative IC50): 1060 µM
Compound: CC(C)(Oc1ccc(CCNC(=O)c2ccc(Cl)cc2)cc1)C(=O)O [Bezafibrate]
Tumor Growth Inhibition ([2]; Day 1): 0.44% | Tumor Volume, Mean ([2]; Day 1): 146.92 mm^3 | Tumor Volume, Mean ([2]; Day 6): 198.50 mm^3 | Tumor Growth Inhibition ([2]; Day 9): 21.70% | Tumor Volume, Mean ([2]; Day 9): 363.14 mm^3 | Tumor Growth Inhibition ([2]; Day 13): 24.92% | Tumor Volume, Mean ([2]; Day 13): 463.30 mm^3 | Tumor Growth Inhibition ([2]; Day 16): 26.18% | Tumor Volume, Mean ([2]; Day 16): 709.65 mm^3 | Tumor Growth Inhibition ([2]; Day 20): 31.59% | Tumor Volume, Mean ([2]; Day 20): 875.99 mm^3 | Anti-tumor efficacy / effect in inhibiting tumor growth (in words) [2]: shows anti-tumor efficacy | Absorption following oral administration [3]: well absorbed | Reduction of low-density lipoprotein cholesterol (LDL-C) [4]: 15-20% | Reduction of triglycerides [4]: 30-50%
